{"source": "PubChem BioAssay (NCI)", "assay_in_all_cases": "growth of human tumour cells (NCI), 48 h", "key": {"[1]": {"test_system": "UO-31 renal"}, "[2]": {"test_system": "K-562 leukemia"}, "[3]": {"test_system": "NCI/ADR-RES ovarian"}, "[4]": {"test_system": "HCC-2998 colon"}, "[5]": {"test_system": "SNB-78 CNS"}, "[6]": {"test_system": "HOP-92 NSCLC"}, "[7]": {"test_system": "SNB-75 CNS"}, "[8]": {"test_system": "MOLT-4 leukemia"}, "[9]": {"test_system": "SK-MEL-5 melanoma"}, "[10]": {"test_system": "M19-MEL melanoma"}, "[11]": {"test_system": "XF 498 CNS"}, "[12]": {"test_system": "DMS 114 small cell lung"}, "[13]": {"test_system": "SF-268 CNS"}, "[14]": {"test_system": "T-47D breast"}, "[15]": {"test_system": "RPMI-8226 leukemia"}, "[16]": {"test_system": "TK-10 renal"}, "[17]": {"test_system": "SN12C renal"}, "[18]": {"test_system": "NCI-H522 lung"}, "[19]": {"test_system": "SK-MEL-2 melanoma"}, "[20]": {"test_system": "KM12 colon"}, "[21]": {"test_system": "UACC-62 melanoma"}, "[22]": {"test_system": "SK-MEL-28 melanoma"}, "[23]": {"test_system": "HOP-18 NSCLC"}, "[24]": {"test_system": "NCI-H460 lung"}, "[25]": {"test_system": "SR leukemia"}, "[26]": {"test_system": "MDA-MB-231 breast"}, "[27]": {"test_system": "IGROV1 ovarian"}, "[28]": {"test_system": "OVCAR-5 ovarian"}, "[29]": {"test_system": "CCRF-CEM leukemia"}, "[30]": {"test_system": "OVCAR-8 ovarian"}, "[31]": {"test_system": "MDA-MB-435"}, "[32]": {"test_system": "COLO 205 colon"}, "[33]": {"test_system": "SK-OV-3 ovarian"}, "[34]": {"test_system": "EKVX NSCLC"}, "[35]": {"test_system": "NCI-H226 lung"}, "[36]": {"test_system": "OVCAR-3 ovarian"}, "[37]": {"test_system": "LOX IMVI melanoma"}, "[38]": {"test_system": "HOP-62 NSCLC"}, "[39]": {"test_system": "A549 NSCLC"}, "[40]": {"test_system": "OVCAR-4 ovarian"}, "[41]": {"test_system": "HT29 colon"}, "[42]": {"test_system": "HS 578T breast"}, "[43]": {"test_system": "HCT-15 colon"}, "[44]": {"test_system": "SNB-19 CNS"}, "[45]": {"test_system": "786-0 renal"}, "[46]": {"test_system": "UACC-257 melanoma"}, "[47]": {"test_system": "U251 CNS"}, "[48]": {"test_system": "MDA-N"}, "[49]": {"test_system": "PC-3 prostate"}, "[50]": {"test_system": "M14 melanoma"}, "[51]": {"test_system": "A498 renal"}, "[52]": {"test_system": "HL-60(TB) leukemia"}, "[53]": {"test_system": "SW-620 colon"}, "[54]": {"test_system": "BT-549 breast"}, "[55]": {"test_system": "RXF 393 renal"}, "[56]": {"test_system": "LXFL 529 NSCLC"}, "[57]": {"test_system": "ACHN renal"}, "[58]": {"test_system": "DLD-1 colon"}, "[59]": {"test_system": "MALME-3M melanoma"}, "[60]": {"test_system": "NCI-H23 lung"}, "[61]": {"test_system": "KM20L2 colon"}, "[62]": {"test_system": "SF-539 CNS"}, "[63]": {"test_system": "MCF7 breast"}, "[64]": {"test_system": "HCT-116 colon"}, "[65]": {"test_system": "DU-145 prostate"}, "[66]": {"test_system": "SF-295 CNS"}, "[67]": {"test_system": "DMS 273 small cell lung"}}, "note": "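Briefly, cells in 96-well plates were exposed to five compound concentrations for 48 h, and endpoints were estimated by linear interpolation. TGI denotes the concentration required for complete inhibition of growth.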", "data": [{"smiles": "CCCCc1c2c(nc3c1CCC/C3=C\\c1ccccc1)C(=O)C(CN(C)C)CC2", "note": "(configuration not stated)", "values": [{"measurement": "TGI", "setting": "[1]", "value": 33.7, "unit": "µM"}, {"measurement": "TGI", "setting": "[2]", "value": 21.5, "unit": "µM"}, {"measurement": "TGI", "setting": "[3]", "value": 91.7, "unit": "µM"}, {"measurement": "TGI", "setting": "[4]", "value": 54.7, "unit": "µM"}, {"measurement": "TGI", "setting": "[5]", "value": 45.6, "unit": "µM"}, {"measurement": "TGI", "setting": "[6]", "value": 33.5, "unit": "µM"}, {"measurement": "TGI", "setting": "[7]", "value": 27, "unit": "µM"}, {"measurement": "TGI", "setting": "[8]", "value": 11.5, "unit": "µM"}, {"measurement": "TGI", "setting": "[9]", "value": 30.9, "unit": "µM"}, {"measurement": "TGI", "setting": "[10]", "value": 32, "unit": "µM"}, {"measurement": "TGI", "setting": "[11]", "value": 28.2, "unit": "µM"}, {"measurement": "TGI", "setting": "[12]", "value": 34.8, "unit": "µM"}, {"measurement": "TGI", "setting": "[13]", "value": 35.6, "unit": "µM"}, {"measurement": "TGI", "setting": "[14]", "value": 14, "unit": "µM"}, {"measurement": "TGI", "setting": "[15]", "value": 31.8, "unit": "µM"}, {"measurement": "TGI", "setting": "[16]", "value": 29.6, "unit": "µM"}, {"measurement": "TGI", "setting": "[17]", "value": 43.1, "unit": "µM"}, {"measurement": "TGI", "setting": "[18]", "value": 30.1, "unit": "µM"}, {"measurement": "TGI", "setting": "[19]", "value": 39.4, "unit": "µM"}, {"measurement": "TGI", "setting": "[20]", "value": 33.6, "unit": "µM"}, {"measurement": "TGI", "setting": "[21]", "value": 48.4, "unit": "µM"}, {"measurement": "TGI", "setting": "[22]", "value": 28.3, "unit": "µM"}, {"measurement": "TGI", "setting": "[23]", "value": 38.5, "unit": "µM"}, {"measurement": "TGI", "setting": "[24]", "value": 34.5, "unit": "µM"}, {"measurement": "TGI", "setting": "[25]", "value": 9.17, "unit": "µM"}, {"measurement": "TGI", "setting": "[26]", "value": 31.9, "unit": "µM"}, {"measurement": "TGI", "setting": "[27]", "value": 36.9, "unit": "µM"}, {"measurement": "TGI", "setting": "[28]", "value": 33.8, "unit": "µM"}, {"measurement": "TGI", "setting": "[29]", "value": 33, "unit": "µM"}, {"measurement": "TGI", "setting": "[30]", "value": 46.1, "unit": "µM"}, {"measurement": "TGI", "setting": "[31]", "value": 37.2, "unit": "µM"}, {"measurement": "TGI", "setting": "[32]", "value": 36.6, "unit": "µM"}, {"measurement": "TGI", "setting": "[33]", "value": 40.6, "unit": "µM"}, {"measurement": "TGI", "setting": "[34]", "value": 36.1, "unit": "µM"}, {"measurement": "TGI", "setting": "[35]", "value": 51.6, "unit": "µM"}, {"measurement": "TGI", "setting": "[36]", "value": 39.9, "unit": "µM"}, {"measurement": "TGI", "setting": "[37]", "value": 30.9, "unit": "µM"}, {"measurement": "TGI", "setting": "[38]", "value": 34.1, "unit": "µM"}, {"measurement": "TGI", "setting": "[39]", "value": 37.3, "unit": "µM"}, {"measurement": "TGI", "setting": "[40]", "value": 22.9, "unit": "µM"}, {"measurement": "TGI", "setting": "[41]", "value": 28.9, "unit": "µM"}, {"measurement": "TGI", "setting": "[42]", "value": 70.8, "unit": "µM"}, {"measurement": "TGI", "setting": "[43]", "value": 20.7, "unit": "µM"}, {"measurement": "TGI", "setting": "[44]", "value": 32.6, "unit": "µM"}, {"measurement": "TGI", "setting": "[45]", "value": 23.9, "unit": "µM"}, {"measurement": "TGI", "setting": "[46]", "value": 33.7, "unit": "µM"}, {"measurement": "TGI", "setting": "[47]", "value": 32.5, "unit": "µM"}, {"measurement": "TGI", "setting": "[48]", "value": 21.1, "unit": "µM"}, {"measurement": "TGI", "setting": "[49]", "value": 29.1, "unit": "µM"}, {"measurement": "TGI", "setting": "[50]", "value": 33.7, "unit": "µM"}, {"measurement": "TGI", "setting": "[51]", "value": 33.2, "unit": "µM"}, {"measurement": "TGI", "setting": "[52]", "value": 18.2, "unit": "µM"}, {"measurement": "TGI", "setting": "[53]", "value": 31.5, "unit": "µM"}, {"measurement": "TGI", "setting": "[54]", "value": 19.8, "unit": "µM"}, {"measurement": "TGI", "setting": "[55]", "value": 30.9, "unit": "µM"}, {"measurement": "TGI", "setting": "[56]", "value": 21, "unit": "µM"}, {"measurement": "TGI", "setting": "[57]", "value": 29.5, "unit": "µM"}, {"measurement": "TGI", "setting": "[58]", "value": 33.4, "unit": "µM"}, {"measurement": "TGI", "setting": "[59]", "value": 40.4, "unit": "µM"}, {"measurement": "TGI", "setting": "[60]", "value": 31.8, "unit": "µM"}, {"measurement": "TGI", "setting": "[61]", "value": 35.6, "unit": "µM"}, {"measurement": "TGI", "setting": "[62]", "value": 36.5, "unit": "µM"}, {"measurement": "TGI", "setting": "[63]", "value": 15.7, "unit": "µM"}, {"measurement": "TGI", "setting": "[64]", "value": 32.6, "unit": "µM"}, {"measurement": "TGI", "setting": "[65]", "value": 29.1, "unit": "µM"}, {"measurement": "TGI", "setting": "[66]", "value": 33.3, "unit": "µM"}, {"measurement": "TGI", "setting": "[67]", "value": 41.1, "unit": "µM"}]}]}
